Data as given in article PMC10805311, “Pseudomonas aeruginosa two-component system CprRS regulates HigBA expression and bacterial cytotoxicity in response to LL-37 stress” (PLOS Pathogens, 2024).
≈ marks a conversion by molar mass, not a printed value. Read-outs that look alike come from different tables or passages of the source. Residues, ends and D or L forms follow the SMILES beside them. No end group written: not given here.

Legend:
[1] = test system: WT P. aeruginosa; test: microbe, parasite or virus in culture; format: cell-based; settings: 37°C; for MIC: without LL-37, LB medium, OD600 = 0.1, 24 h; for MIC (+ LL-37): antibiotic + LL-37 (LL-37 pretreatment), LB medium, 24 h
Description: (§1) The initial concentrations of meropenem, cephalosporin, tetracycline, gentamicin, ciprofloxacin, polymyxin B, and colistin are: 0.1 mg/mL, 0.02 mg/mL, 0.5 mg/mL, 0.16 mg/mL, 1 mg/mL, 0.1 mg/mL, and 0.1 mg/mL, all the antibiotics were 10 × gradient dilution with sterile PBS buffer. Overnight bacterial cultures of WT P. aeruginosa and mutants were re-inoculated into fresh LB medium supplemented at OD600 = 0.1, then 90 μL cultures and 10 μL antibiotic dilutions were added in a 96-well microtiter dish for 24 h at 37°C.

[2] = test system: P. aeruginosa ΔcprR; format: cell-based; settings: 37°C; for MIC (+ LL-37): antibiotic + LL-37 (LL-37 pretreatment), LB medium, 24 h; for MIC: without LL-37, LB medium, OD600 = 0.1, 24 h
Description: as §1

[3] = test system: P. aeruginosa ΔcprS; format: cell-based; settings: 37°C; for MIC (+ LL-37): antibiotic + LL-37 (LL-37 pretreatment), LB medium, 24 h; for MIC: without LL-37, LB medium, OD600 = 0.1, 24 h
Description: as §1

[4] = test system: cprR; test: qRT-PCR, cprR transcription; format: cell-based, P. aeruginosa; settings: oprL as normalizer
Description: (§2) Overnight bacterial cultures were subcultured in fresh LB medium to OD600 0.8 and the cells were collected by using Trizol. The cDNA was synthesized by using PrimeScript RT reagent Kit. 2 × SYBR qPCR Master Mix was used to perform qPCR assays. The reaction step was 2 × SYBR qPCR Master Mix (Without ROX) 10 μL, upstream Primer (10 μM) 0.4 μL, downstream Primer (10 μM) 0.4 μL, template cDNA 1 μg and ddH2O up to 20 μL. The qPCR procedure was set as: stage 1 (95°C 30 s, repeat once), stage 2 (95°C 10 s, 60°C 30 s, repeat for 40 times) and stage 3 (95°C 15 s, 60°C 1 min, 95°C 15 s, repeat 1 time). The oprL gene was used as a normalizer. The same method was used for mammalian cells, and 18 sRNA served as a normalizer.

[5] = test system: full-length CprS (CprSFL); test: Microscale thermophoresis (MST), full-length CprS; format: binding, P. aeruginosa; settings: 100 nM CprS, cationic peptides from 500 μM, 25°C 30 min
Description: The E. coli BL21 (DE3) strains harboring pET22b-cprS and pET22b-cprR were cultured at 37°C in LB medium and suppled with 0.4 mM IPTG as the OD600 reached to 0.8. The cultures were incubated at 16°C for an additional 14 h and the cells were collected and resuspended in buffer A (20 mM tris-HCl (pH 8.0), 150 mM NaCl). The cells were lysed by ultrasound and centrifuged at 15, 000 rpm for 20 min at 4°C. Then the supernatant was applied to Ni-agarose resins and eluted with buffer containing 300 mM imidazole. As for full-length CprS, the supernatant needed to be extracted by 2% ELUGENT Detergent and flow 0.02% DDM for elution. The target proteins were further purified via AKTA purifier using buffer A and concentrated to 12 mg/mL.
The 100 nM CprS with His-tag was labeled with Monolith His-Tag Labelling Kit RED-tris-NTA 2nd Generation Kit and the cationic peptides used in this work were diluted with PBST buffer gradient from 0.5 mM [34]. The proteins and cationic peptide dilutions were mixed and incubated at 25°C for 30 min and detected on a Monolith NT.115 instrument. The data were analyzed by NanoTemper Analysis 1.2.20 software.

[6] = test system: cprS; test: qRT-PCR, cprS transcription; format: cell-based, P. aeruginosa; settings: oprL as normalizer
Description: as §2

[7] = test system: P. aeruginosa PAO1 strain H103; settings: cited from earlier work
From the text: TCSs represent the most common signal-transduction cascades in bacteria, sensing external cues such as ions, peptides, and compounds [46, 47]. Canonical TCSs comprise a transmembrane sensor histidine kinase (HK) and an intracellular response regulator (RR). Upon binding to specific stimuli, the HK undergoes autophosphorylation and transfers the phosphoryl group to the RR, activating its transcription regulation ability to influence bacterial behavior. To date, over 60 TCSs have been identified in the P. aeruginosa PAO1 genome, they have been recognized as crucial players in various b ...

[8] = target: CprS periplasmic sensor domain CprSSD (residues 28-163) (Pseudomonas aeruginosa); test: MST; 100 nM His-tagged CprS labelled with Monolith His-Tag Labelling Kit RED-tris-NTA 2nd Generation; cationic peptides in 16 doubling dilutions from 500 uM (0.5 mM) in PBST; incubated at 25 C for 30 min; Monolith NT.115; repeated three times
[9] = target: full-length CprS (CprSFL), sensor histidine kinase of the two-component system CprRS (Pseudomonas aeruginosa); test: as above
[10] = test system: CarSR system; settings: Vibrio cholerae; cited from earlier work
From the text: In the field of microbiology and immunology, the interaction between host antimicrobial peptides and pathogenic bacteria has been a subject of extensive research. The success of bacterial infections depends on a delicate balance of signals exchanged between microbes and hosts. Cationic antimicrobial peptides, including defensins such as α-defensins, β-defensins, and cathelicidin LL-37, are crucial components of innate host defense against bacterial infections. Numerous studies have shown that LL-37 acts as a shield between the host and the external environment, preventing bact ...

[11] = Pseudomonas aeruginosa, read-out: MIC

O=C(O)c1cn(C2CC2)c2cc(N3CCNCC3)c(F)cc2c1=O [CIP, ciprofloxacin]
MIC [1, 11]: 2 µg/mL (≈ 6.04 µM)

CNC(C)C1CCC(N)C(OC2C(N)CC(N)C(OC3OCC(C)(O)C(NC)C3O)C2O)O1 (stereo not shown) [GM, Gentamicin]
MIC [1, 11]: 12.5 µg/mL (≈ 26.2 µM)

C[C@@H](O)[C@H]1C(=O)N2C(C(=O)O)=C(S[C@@H]3CN[C@H](C(=O)N(C)C)C3)[C@H](C)[C@H]12 [MEM, Meropenem]
MIC [1, 11]: 10 µg/mL (≈ 26.1 µM)

CC[C@H](C)CCCCC(=O)N[C@@H](CCN)C(=O)N[C@H](C(=O)N[C@@H](CCN)C(=O)N[C@H]1CCNC(=O)[C@H]([C@@H](C)O)NC(=O)[C@H](CCN)NC(=O)[C@H](CCN)NC(=O)[C@H](CC(C)C)NC(=O)[C@@H](Cc2ccccc2)NC(=O)[C@H](CCN)NC1=O)[C@@H](C)O [Polymyxin B] (HELM PEPTIDE1{[CC[C@H](C)CCCCC(=O)[*:2]].[Dab].T.[Dab].[Dab].[Dab].[dF].L.[Dab].[Dab].T}$PEPTIDE1,PEPTIDE1,5:R3-11:R2$$$V2.0; N-terminus assumed; bridges inferred)
MIC (+ LL-37) [2]: 1 µg/mL
MIC [2]: 2 µg/mL (≈ 1.66 µM)
MIC (+ LL-37) [3]: 1 µg/mL
MIC [3]: 2 µg/mL (≈ 1.66 µM)
expression of cprR under Polymyxin B treatment [4]: no significant change in expression was observed
binding to CprS [5]: no binding was observed
expression of cprS under Polymyxin B treatment [6]: no significant change in expression was observed
CprRS-mediated adaptive resistance [7]: adaptive resistance
MIC (+ LL-37) [1]: 64 µg/mL
MIC [1]: 4 µg/mL (≈ 3.32 µM)

CN(C)[C@@H]1C(O)=C(C(N)=O)C(=O)[C@@]2(O)C(O)=C3C(=O)c4c(O)cccc4[C@@](C)(O)[C@H]3C[C@@H]12 [TE, Tetracycline]
MIC [1, 11]: 3.2 µg/mL (≈ 7.2 µM)

CC[C@H](C)CCCCC(=O)N[C@@H](CCN)C(=O)N[C@H](C(=O)N[C@@H](CCN)C(=O)N[C@H]1CCNC(=O)[C@H]([C@@H](C)O)NC(=O)[C@H](CCN)NC(=O)[C@H](CCN)NC(=O)[C@H](CC(C)C)NC(=O)[C@@H](CC(C)C)NC(=O)[C@H](CCN)NC1=O)[C@@H](C)O [colistin, Colistin] (HELM PEPTIDE1{[CC[C@H](C)CCCCC(=O)[*:2]].[Dab].T.[Dab].[Dab].[Dab].[dL].L.[Dab].[Dab].T}$PEPTIDE1,PEPTIDE1,5:R3-11:R2$$$V2.0; N-terminus assumed; bridges inferred)
MIC (+ LL-37) [2]: 1 µg/mL
MIC [2]: 1 µg/mL (≈ 0.855 µM)
MIC (+ LL-37) [3]: 0.5 µg/mL
MIC [3]: 1 µg/mL (≈ 0.855 µM)
binding to CprS [5]: no binding was observed
MIC (+ LL-37) [1]: 64 µg/mL
MIC [1]: 4 µg/mL (≈ 3.42 µM)

human host defense peptide LL-37
Kd [8]: 5.34 µM
Kd [9]: 1.41 µM

indolicidin: cationic peptide antibiotic (ILPWKWPWWPWRR; ends and bridges not checked; UniProt P33046 131-143, looked up)
CprRS-mediated adaptive resistance [7]: adaptive resistance

B1: α-defensin 5: human enteric α-defensin 5 (peptide, UniProt Q01523 20-94, looked up)
Defensin alpha 5: ESLQERADEATTQKQSGEDNQDLAISFAGNGLSALRTSGSQARATCYCRTGRCATRESLSGVCEISGRLYRLCCR
modifications: Defensin-5
sensing by CarSR [10]: sense human enteric α-defensin 5 and LL-37 to promote bacterial pathogenicity
